The results in this text go back to ChEMBL document CHEMBL1159221, “Crystal Structure of Sandaracopimaric Acid, a Lipoxygenase Inhibitor from Juniperus phoenicea” (J Nat Prod, 1995).

The structures appear in SMILES notation. Calls of active or inactive are those of the source. The rule behind the calls is not given here.

In one test the test system is HGT. Briefly: Growth inhibition of HGT cells. In kind it is functional, cell-based. As to conditions: Homo sapiens.
Another test has as its system MCF7. Briefly: Growth inhibition of human MCF7 cells. In kind it is functional, cell-based.
Test [1] can be described thus: Inhibition of soybean 15-lipoxygenase assessed as residual activity by spectrophotometry. Details: species or system Glycine max.

Regarding `C=C[C@]1(C)C=C2CC[C@@H]3[C@](C)(CCC[C@@]3(C)C(=O)O)[C@H]2CC1` [SANDARACOPIMARIC ACID], the result in the test with HGT and with MCF7 was inactive. Further, in test [1], the IC50 worked out at 650 µM.
